{"source": "patent US8227483B2", "about": "“Polymorphs of 6-beta-naltrexol” (Mallinckrodt LLC, priority 2008, dated 2012)", "key": {"[1]": {"assay": "solubility in a mixture of alcohol and water", "assay_type": "physicochemical", "conditions": "compared with Form IB"}, "[2]": {"assay": "resistance to degradation in air", "assay_type": "physicochemical", "conditions": "compared with Form IB"}, "[3]": {"assay": "slurry experiments (stability of the crystalline forms)", "assay_type": "physicochemical", "procedure": "Slurry Experiments. The stability of the crystalline forms was analyzed using slurry experiments. A portion of the solvent of interest was saturated with 6-beta-naltrexol base or 6-beta-naltrexol hydrochloride in a small vial. Additional 6-beta-naltrexol base or 6-beta-naltrexol hydrochloride was then added to the vial, and the resulting slurry was stirred using a magnetic stir bar."}, "[4]": {"system": "chronic dependence model", "conditions": "cited from earlier work"}, "[5]": {"system": "acute dependence model", "conditions": "high doses; cited from earlier work"}, "[6]": {"conditions": "in vivo; compared with naloxone and naltrexone; cited from earlier work"}, "[7]": {"assay": "water vapor sorption", "assay_type": "physicochemical", "procedure": "Water Vapor Sorption. Data were collected with a SGA-100 water vapor sorption balance (VTI Corporation, Hialeah, Fla.). A portion of the selected sample was weighed into a platinum sample pan and placed into the instrument. The sample was cycled from low (5%) relative humidity (RH) to high (95%) RH to low humidity (i.e., sorption and desorption events) at a constant temperature of 25° C., in 5% RH intervals. The sample was held at each interval until the equilibrium condition was met (i.e., 0.0005% for 3 min, with a maximum of 600 min)."}, "[8]": {"assay": "relative stability of the crystalline forms", "assay_type": "physicochemical", "conditions": "dihydrate form of Form IIIS", "description": "Above this humidity, Form IIIS absorbed approximately 1.4%-1.5% water at 95% RH."}}}
{"smiles": "Oc1ccc2c3c1O[C@H]1[C@H](O)CC[C@@]4(O)[C@@H](C2)N(CC2CC2)CC[C@]314", "note": "[Form IIB, 6-beta-naltrexol base]", "values": [{"measurement": "solubility", "setting": "[1]", "value": "greater solubility in a mixture of alcohol and water than Form IB"}, {"measurement": "resistance to degradation in air", "setting": "[2]", "value": "more resistant to degradation in air than Form IB"}]}
{"smiles": "Cl.Oc1ccc2c3c1O[C@H]1[C@H](O)CC[C@@]4(O)[C@@H](C2)N(CC2CC2)CC[C@]314", "note": "[Form IIS, 6-beta-naltrexol hydrochloride]", "values": [{"measurement": "time the form was stable in slurry", "setting": "[3]; isopropyl alcohol slurry", "value": "at least 8 days"}]}
{"smiles": "Oc1ccc2c3c1OC1C(O)CC[C@@]4(O)[C@@H](C2)N(CC2CC2)CC[C@]314", "note": "(stereo partly drawn) [6-beta-naltrexol, morphinan-3,6,14-triol,17-(cyclopropylmethyl)-4,5-epoxy]", "values": [{"measurement": "fold less potent than naloxone in precipitating withdrawal", "setting": "[4]; relative to naloxone", "value": "~30", "unit": "fold"}, {"measurement": "fold less potent than naltrexone in precipitating withdrawal", "setting": "[4]; relative to naltrexone", "value": "approximately 77 fold"}, {"measurement": "withdrawal precipitated", "setting": "[5]", "value": "only minimal withdrawal"}, {"measurement": "duration of action", "setting": "[6]", "value": "longer duration of action than naloxone and naltrexone"}]}
{"smiles": "Cl.Oc1ccc2c3c1O[C@H]1[C@H](O)CC[C@@]4(O)[C@@H](C2)N(CC2CC2)CC[C@]314", "note": "[Form IIIS, 6-beta-naltrexol hydrochloride]", "values": [{"measurement": "stability to humidity", "setting": "[7]; above 15% RH, 25° C.", "value": "reasonably stable up to approximately 90% RH"}, {"measurement": "solid form at the conclusion of the sorption experiment (pXRD)", "setting": "[7]; after sorption/desorption cycle 5%-95%-5% RH", "value": "still comprised predominately Form IIIS"}, {"measurement": "water absorbed", "setting": "[7]; at 95% RH, 25° C.", "value": "1.4%-1.5%"}, {"measurement": "hysteresis during desorption", "setting": "[7]; desorption, 25° C.", "value": "minimal hysteresis"}, {"measurement": "water lost", "setting": "[7]; humidities below 15% RH, 25° C., of its original 8.9% water content", "value": "approximately 4.5%"}, {"measurement": "relative stability among crystalline forms", "setting": "[8]", "value": "most stable of all the crystalline forms of 6-beta-naltrexol hydrochloride"}]}
{"smiles": "Cl.Oc1ccc2c3c1O[C@H]1[C@H](O)CC[C@@]4(O)[C@@H](C2)N(CC2CC2)CC[C@]314", "note": "[Form IVS, 6-beta-naltrexol hydrochloride]", "values": [{"measurement": "time the form was stable in slurry", "setting": "[3]; ethyl alcohol slurry", "value": "at least 15 days"}]}
